The numbers were not newly measured in patent publication US20120282187A1 (BOEHRINGER INGELHEIM INTERNATIONAL GMBH, priority 2008, published 2012), which cites them from elsewhere.

Structures are written as SMILES.

The test system of data set [1] is patients with non-valvular atrial fibrillation. As to conditions: in vivo; cited from earlier work.
Data set [2] relates to patients with atrial fibrillation. To be noted: sub-cutaneous; cited from earlier work.

With `CCOC(=O)CN[C@@H](C(=O)N1CC[C@H]1C(=O)NCc1ccc(/C(N)=N\O)cc1)C1CCCCC1` [ximelagatran], in data set [1], the hepatotoxicity entry is given as “hepatotoxic”. On to `CO[C@H]1O[C@H](COS(=O)(=O)O)[C@@H](O[C@@H]2O[C@@H](C(=O)O)[C@@H](O[C@H]3O[C@H](COS(=O)(=O)O)[C@@H](O[C@@H]4O[C@H](C(=O)O)[C@@H](O[C@H]5O[C@H](COS(=O)(=O)O)[C@@H](OC)[C@H](OC)[C@H]5OC)[C@H](OC)[C@H]4OC)[C@H](OS(=O)(=O)O)[C@H]3OS(=O)(=O)O)[C@H](OC)[C@H]2OC)[C@H](OS(=O)(=O)O)[C@H]1OS(=O)(=O)O` [idraparinux], for which, in data set [2], the “efficacy compared to warfarin” value was “more effective than warfarin” and the “risk of bleeding compared to warfarin” value is on record as “substantially higher risk of bleeding”.
